# Data reported in patent US20140286906A1, “USE OF IGF-1 IN THE MODULATION OF TREG CELL ACTIVITY AND THE TREATMENT AND PREVENTION OF AUTOIMMUNE DISORDERS OR DISEASES” (priority 2011, published 2014).
# Like-named read-outs stand apart in the source and are kept apart here.
# How the values were obtained:
# CD4+CD25+ splenic cells = assay: flow cytometry of activation and homing markers on CD4+CD25+ splenic cells; assay type: cell-based, murine; settings: after IGF-1 treatment in vitro
# Excerpt: The expression of certain markers on the surface of the cell is correlated with the degree of activation of the cells and also controls their trafficking and localization and consequently the compartmentalization of the immune responses. This is again measured using flow cytometric methods. For example, cells expressing high levels of CD62L preferentially migrate to secondary lymphoid tissues. However, as these cells enter the periphery (for example when they travel to affected tissues during an autoimmune process) they rapidly acquire an activated phenotype and express higher levels of CD44. Thus upregulation of CD44 is associated with a higher proliferation rate. […] The importance of this observation comes from the fact that in order to exert their suppressive properties, Tregs need to migrate to the affected tissues first. Therefore, IGF-1 not only induces activation of proliferation but also promotes their correct localization.
# Finally, the inventors analyzed the ability of IGF-1 to alter the homing properties of the regulatory T cell subset. In 2003, Fisson et al. defined two distinct population of regulatory T cells in homeostatic conditions. In the steady state, some Tregs remain quiescent for long periods of time, whereas the other Treg population divides extensively and express multiple activation markers. […] This pattern of change is also consistent with a more activated phenotype. On one hand, CD44^hiCD62L^lo Treg populations, but not their CD44^loCD62L^hi counterparts, constantly incorporate BrdU, a synthetic analog of thymidine, into newly synthesized DNA in lymphoid tissues (Matsushima and Takashima, 2010). On the other hand, higher levels of CD62L have been associated with a higher capacity of Tregs to migrate to the lymph nodes, while lower levels allows them to migrate to sites of inflammation (Fisson et al., 2003; Bromley et al., 2008). Thus, T regulatory cells expressing lower levels of CD62L would have a higher inflammation-seeking capacity, which has been associated with higher suppressive potential in various inflammation models (Huehn et al., 2005). […] One, IGF-1 is able to activate a complex pathway resulting in Treg activation leading to proliferation and to selective homing and migration to the sites of inflammation. The second conclusion comes from the observation that sequential migration from blood to the target tissue and then to draining lymph nodes is required for nTreg to differentiate and execute fully their suppressive function, by inhibiting dendritic cells in the peripheral tissue and T effector cell responses in dLN and periphery (Zhang et al., 2009). Thus, IGF-1 treatment not only results in higher numbers of T regulatory cells but also in altering the trafficking of these cells to achieve a higher suppressive effect. […]
# [1] = test system: CD4+CD25- cells (T conventional cells); assay: Annexin V / living dye apoptosis flow cytometry, CD4+CD25- cells; assay type: cell-based, murine
# Excerpt: The effects of IGF-1 on apoptosis can be measured by flow cytometry. By using a combination of a living dye and Annexin V staining it is possible to determine four different cell populations which correspond to non-apoptotic, necrotic, early and late apoptosis.
# Initially, and in order to characterize the in vitro effects of IGF-1 on the different populations of the […] immune system, murine splenic CD4 positive cells were sorted by FACS based on the expression of CD25. This allows for the separation and enrichment of conventional T cells (CD25 negative) and regulatory T cells (CD25 positive). […] To exclude the possibility that the observed expansion was due to the anti-apoptotic properties of IGF-1, the cells in culture were stained with AnnexinV (a marker of apoptosis) and a vital dye, and then analyzed by flow cytometry.
# EAE = settings: i.v. 600 μg/day for six days (Liu et al. 1997); cited from earlier work
# [2] = test system: experimental autoimmune encephalomyelitis (EAE); settings: cited from earlier work
# [3] = test system: experimental autoimmune encephalomyelitis (EAE); assay type: in vivo
# Protocol: Regarding EAE, clinical severity of the disease is scored using a grading score from 0 to 5, where 0 means no clinical signs and 5 means a moribund paralysed mouse. As the disease progresses the body is paralysed progressively from tail to upper limbs. In these experiments the protocol described by Stromnes and Goverman (2006) is used.
# Shortly, single cell suspensions are prepared from the […] and spinal cord. The resulting cells are stained with anti-CD4 antibodies and separated using fluorescent-activated cell sorting. RNA is then extracted and purified and serves as a template for a quantitative RT-PCR reaction with Taqman probes. Finally, the relative amount of each mRNA compared to a house-keeping gene (Hprt) is determined.
# Based on these and our previous observations, the inventors hypothesized that systemic and prolonged delivery of IGF-1 in mice developing EAE would increase and correctly localized Tregs and thus positively affect the course of the disease. The inventors therefore implanted subcutaneously the IGF-1 delivery devices and induced EAE in mice. […] In order to determine if the amelioration of the disease was associated with an increase in T regulatory function, the inventors performed immunohistochemical analysis to determine the number and localization of T regulatory cells in the spinal cord at the early stages of the disease. […] There was therefore a negative correlation between the number of Treg cells and the observed clinical score. Moreover, both clinical improvement and increased regulatory cell number associated with IGF-1 treatment were abolished by CTLA-4 blockade, which interferes with regulatory T cell function (FIG. 26; Herman et al., 2004).
# The inventors induced EAE and mice and initiated the IGF-1 treatment when the first signs of paralysis appeared (FIG. 27).
# [4] = RT-PCR day 27, compared to control mice
substance,measurement,setting,value
Insulin-like growth factor-1 [IGF-1],CD44 surface expression,CD4+CD25+ splenic cells,upregulated
same,CD62L surface expression,CD4+CD25+ splenic cells,down
same,CD71 surface expression,CD4+CD25+ splenic cells,upregulated
same,protection from apoptosis,[1],partially protected from apoptosis
same,number of infiltrating T cells and macrophages,EAE,reduction
same,course of EAE,[2]; 10 mg/kg per day given after disease onset (Lovett-Racke et al.),did not significantly alter the course of disease
same,course of EAE,[2]; 10 mg/kg per day given before disease onset (Lovett-Racke et al.),mild protection
same,clinical course of EAE,[2]; administration during the acute phase (Cannella et al.),some transient clinical amelioration
same,clinical course of EAE,[2]; chronic phase (Cannella et al.),no effect
same,Foxp3 expression in CD4 positive cells of the spinal cord,[3]; [4],increase
same,IL-10 expression in CD4 positive cells of the spinal cord,[3]; [4],increase
same,IL-17 expression in CD4 positive cells of the spinal cord,[3]; [4],decrease
same,interferon-gamma expression in CD4 positive cells of the spinal cord,[3]; [4],decrease
same,Treg cell number in the spinal cord (immunohistochemistry),[3]; early stages of the disease,increase in Treg cell number
same,detrimental effect in EAE,"[3]; mouse, in vivo",never showed a detrimental effect
same,mortality,"[3]; prophylactic or therapeutic manner, n=34, P=0.028",significantly reduced mortality
same,clinical outcome (clinical grading),"[3]; prophylactic: delivery device implanted day -3, immunization day 0, 4 weeks, n=13",improved clinical outcome
same,clinical severity,"[3]; therapeutic: applied after onset of disease (day 11), P<0.05 from day 13",reduced clinical severity
